What was measured:
Assay type in all cases: functional
Details in all cases: route oral
[1] = system: Rattus norvegicus; assay: Hypolipidemic effects of compound on rat plasma Triglyceride (TG) level after peroral administration at 100 mg/kg dose
[2] = system: Rattus norvegicus; assay: Hypolipidemic effect on rat plasma Total cholesterol (TC) level by peroral administration at 100 mg/kg dose
[3] = system: Rattus norvegicus; assay: Hypolipidemic effects in rat fed a high cholesterol diet (HC) by peroral administration at 100 mg/kg dose(increase in liver weight with respect to body weight mg/g)
[4] = system: Rattus norvegicus; assay: Hypolipidemic effects in rat fed a normal diet by peroral administration at 100 mg/kg dose(increase in liver weight with respect to body weight mg/g)
[5] = system: Rattus norvegicus; assay: Hypolipidemic effects of compound on rat plasma high density lipoprotein cholesterol (HDLC) level after peroral administration at 100 mg/kg dose
[6] = system: Rattus norvegicus; assay: Hypolipidemic effects in rat fed a high cholesterol diet (HC) by peroral administration at 100 mg/kg dose.(increase in liver weight with respect to body weight mg/g)
[7] = system: Rattus norvegicus; assay: Hypolipidemic effects of compound on rat plasma Triglyceride (TG) level after by peroral administration at 100 mg/kg dose
[8] = system: Rattus norvegicus; assay: Hypolipidemic effects in rat fed a high cholesterol diet (HC) by peroral administration at 100 mg/kg dose. (increase in liver weight with respect to body weight mg/g)
[9] = system: Rattus norvegicus; assay: Hypolipidemic effects in rat fed a normal diet by peroral administration at 100 mg/kg dose.
[10] = system: Rattus norvegicus; assay: Hypolipidemic effects in rat fed a high cholesterol diet (HC) by peroral administration at 100 mg/kg dose.
[11] = system: Rattus norvegicus; assay: Hypolipidemic effects in rat plasma Triglyceride (TG) by peroral administration at 100 mg/kg dose
[12] = system: Rattus norvegicus; assay: Hypolipidemic effect in rat plasma Total cholesterol (TC) by peroral administration at 100 mg/kg dose
[13] = system: Rattus norvegicus; assay: Hypolipidemic effects in rat plasma high density lipoprotein cholesterol (HDLC) by peroral administration at 100 mg/kg dose
[14] = system: Rattus norvegicus; assay: Hypolipidemic effects in rat fed a normal diet by peroral administration at 100 mg/kg dose.(increase in liver weight with respect to body weight mg/g)
[15] = system: Rattus norvegicus; assay: Hypolipidemic effects in rat fed a high cholesterol diet (HC) by peroral administration at 100 mg/kg dose (increase in liver weight with respect to body weight mg/g)

CC(C)(Oc1ccc(CCCCc2ccccc2)cc1)C(=O)O
TG [1]: 41.3 mg/dL | TC [2]: 194.6 mg/dL | Liver weight [3]: 67.1 mg (g of body weight)-1 | Liver weight [4]: 54.6 mg (g of body weight)-1 | HDL-C [5]: 50.7 mg/dL

CC(C)(CCCCOc1ccc(CCCCc2ccccc2)cc1)COC(=O)c1cccnc1
TG [1]: 46.7 mg/dL | TC [2]: 152 mg/dL | Liver weight [4]: 39.7 mg (g of body weight)-1 | Liver weight [6]: 57.8 mg (g of body weight)-1 | HDL-C [5]: 49.9 mg/dL

Cc1cnc(COC(=O)C(C)(C)CCCCOc2ccc(CCCCc3ccccc3)cc2)cn1
TC [2]: 181.5 mg/dL | Liver weight [4]: 38.2 mg (g of body weight)-1 | Liver weight [6]: 59.6 mg (g of body weight)-1 | HDL-C [5]: 51.7 mg/dL | TG [7]: 36.9 mg/dL

CC(C)(CCCOc1ccc(-c2ccccc2)cc1)C(=O)O
TG [1]: 54.3 mg/dL | Liver weight [8]: 54.7 mg (g of body weight)-1 | TC [2]: 222.7 mg/dL | HDL-C [5]: 39.9 mg/dL

CC(C)(CCCCCCCOc1ccc(CCCCc2ccccc2)cc1)C(=O)O
Liver weight [9]: <40.1 mg (g of body weight)-1 | Liver weight [10]: 57.6 mg (g of body weight)-1 | TG [11]: 43 mg/dL | TC [12]: <145.7 mg/dL | HDL-C [13]: <65.2 mg/dL

CC(C)(CCCOc1ccc(CCc2ccccc2)cc1)C(=O)O
TG [1]: 92.7 mg/dL | TC [2]: 282.8 mg/dL | Liver weight [6]: 53.5 mg (g of body weight)-1 | HDL-C [5]: 32 mg/dL

CC(C)(CCCCCOc1ccc(CCCCc2ccccc2)cc1)C(=O)O
Liver weight [14]: 36.7 mg (g of body weight)-1 | TG [1]: 60.4 mg/dL | TC [2]: 190.6 mg/dL | Liver weight [6]: 58.3 mg (g of body weight)-1 | HDL-C [5]: 52.4 mg/dL

CC(C)(CCCCCCCCCCOc1ccc(CCCCc2ccccc2)cc1)C(=O)O
Liver weight [10]: 57.2 mg (g of body weight)-1 | TG [11]: 52.8 mg/dL | TC [12]: 248.6 mg/dL | HDL-C [13]: 48.6 mg/dL

Cc1cnc(C(=O)OCC(C)(C)CCCCOc2ccc(CCCCc3ccccc3)cc2)cn1
TG [1]: 41 mg/dL | TC [2]: 145.1 mg/dL | Liver weight [6]: 58 mg (g of body weight)-1 | HDL-C [5]: 47.6 mg/dL

CC(C)(CCCCCCCCOc1ccc(CCCCc2ccccc2)cc1)C(=O)O
Liver weight [9]: <39.3 mg (g of body weight)-1 | Liver weight [10]: 58.4 mg (g of body weight)-1 | TG [11]: 47.6 mg/dL | TC [12]: <150 mg/dL | HDL-C [13]: <53.7 mg/dL

CC(C)(CCCCCCOc1ccc(CCCCc2ccccc2)cc1)C(=O)O
TG [1]: 48.9 mg/dL | TC [2]: 150.7 mg/dL | Liver weight [4]: 42.3 mg (g of body weight)-1 | Liver weight [6]: 60.2 mg (g of body weight)-1 | HDL-C [5]: 58.1 mg/dL

CCOC(=O)C(C)(C)Oc1ccc(Cl)cc1 [CLOFIBRATE]
Liver weight [9]: <43.1 mg (g of body weight)-1 | Liver weight [10]: 52.8 mg (g of body weight)-1 | TG [11]: <51.8 mg/dL | TC [12]: <251.2 mg/dL | HDL-C [13]: 29.4 mg/dL

Cc1ccc(C)c(OCCCC(C)(C)C(=O)O)c1 [GEMFIBROZIL]
Liver weight [14]: 51.4 mg (g of body weight)-1 | TG [1]: 53.1 mg/dL | TC [2]: 358.7 mg/dL | HDL-C [5]: 51.5 mg/dL | Liver weight [15]: 54.8 mg (g of body weight)-1
